Source: patent US20090176817A1, “Method of Treatment of Diarrhea-Predominant Irritable Bowel Syndrome in a Subject” (priority 2005, published 2009)
Read-outs that look alike come from different tables or passages of the source.

How the values were obtained:
[1] = test system: CYP2C19; conditions: hepatocytes
[2] = clinical; format: in vitro ADME; conditions: male, human, plasma; 8 mg oral/IV, 30, 45, 120 minutes; read-out: Fraction bound
Experimental: Plasma protein binding was also measured in blood samples collected at 30, 45, and 120 minutes after dosing in a single-dose, crossover study in which cilansetron 8 mg was administered orally (solution and capsule) and intravenously to 18 male subjects. In samples where total and/or free concentrations were measurable, fraction bound was about 96-98%.

[3] = clinical; format: in vitro ADME; conditions: both sexes, human, serum, % free in serum
Experimental: Steady state serum samples for measurement of cilansetron protein binding were collected at predose, and 1 and 1.5 hours postdose on Day 6.

[4] = both, human, in vivo
Experimental: Two randomized, double-blind, placebo controlled, balanced incomplete block design, crossover studies evaluated the single- and multiple-dose pharmacokinetics of oral cilansetron over a 8 mg to 32 mg dose range. In both studies, subjects were randomized to receive two of three treatments during 2 treatment periods. In one study (12 male and 13 female subjects, aged 23 to 36 years), subjects received 8 mg cilansetron, 16 mg cilansetron, or placebo, while in another study (12 males and 13 females, aged 23 to 41 years), subjects received 16 mg cilansetron, 32 mg cilansetron, or placebo. During each treatment period, subjects received a single dose of their assigned treatment on the first day, followed by a 3-day washout, after which they received the same treatment TID for 5 days.
There was a 5-6 day washout period between treatment periods. Doses on the mornings of pharmacokinetic days were administered under fasted conditions. Serial blood sampling and urine collection was performed up to 12 hours following morning dosing on the first day (single dose) and on the last multiple dosing day of each treatment period, and cilansetron pharmacokinetic parameters were evaluated.
In two randomized, double-blind, placebo controlled, balanced incomplete block design, crossover studies evaluating the single- and multiple-dose pharmacokinetics of oral cilansetron over a 8 mg to 32 mg dose range, subjects were randomized to receive two of three treatments during 2 treatment periods. In Study S.241.1.101; (12 male and 13 female subjects, aged 23 to 36 years), subjects received 8 mg cilansetron, 16 mg cilansetron, or placebo, while in Study S.24 1.1.102; (12 males and 13 females, aged 23 to 41 years), subjects received 16 mg cilansetron, 32 mg cilansetron, or placebo. During each treatment period, subjects received a single dose of their assigned treatment on the first day, followed by a 3-day washout, after which they received the same treatment TID for 5 days. There was a 5-6 day washout period between treatment periods. Doses on the mornings of pharmacokinetic days were administered under fasted conditions. Serial blood sampling and urine collection was performed up to 12 hours following morning dosing on the first day (single dose) and on the last multiple dosing day of each treatment period, and cilansetron pharmacokinetic parameters were evaluated.

[5] = both, human; for Fraction unbound ratio All Renal Groups Combined:Healthy / Fraction unbound ratio Mild:Healthy / Fraction unbound ratio Moderate:Healthy / Fraction unbound ratio Severe:Healthy: serum
Experimental: The ex vivo protein binding of cilansetron and its 4-hydroxy metabolites has been measured in serum samples collected in a multiple-dose study in healthy and renally impaired male and female subjects, aged 33-74 years. […] Healthy subjects were matched to renally-impaired subjects with respect to age, weight, gender, and smoking status. All subjects received oral cilansetron 2 mg TID on Days 1 to 5, and a single dose on the morning of Day 6.

[6] = test system: diarrhea-predominant IBS subjects; assay: Study S241.3.006: IBS-QOL; format: in vivo, human; conditions: for Percentage of Subjects Who Worsened from Baseline: IBS-QOL Overall Score: S241.3.006, 2 mg TID, observed value
Source text: Studies S24 1.3.OO6, S24 1.3.0 1 1, and S24 1.3.009 used the following efficacy measurements: • The subjects answered the following three questions with “yes” or “no” using a phone diary at the end of each week: • a) During the last week, did you experience adequate relief of your IBS symptoms, such as abdominal pain, abdominal discomfort, abnormal bowel habits? • b) During the last week, did you experience adequate relief of your abdominal pain and/or discomfort? • c) During the last week, did you experience adequate relief of your abnormal bowel habits? • The subjects rated the following symptoms using the phone diary at the end of each day: • abdominal pain/discomfort (five-point scale); • stool consistency (seven-point Bristol Stool Scale); • stool frequency (number of bowel movements each day); • urgency (five-point scale); • straining (yes or no); • feeling of incomplete defecation (yes or no); • bloating or feeling of abdominal distension (five-point scale). • In Studies S241 A006 and S241.3.009, subjects completed the IBS-QOL Survey at Baseline (Day 1) and at the end of treatment. In Study S24 1.3.0 1 1, subjects completed the IBS-QOL Survey at Baseline (Day 1), at the end of the three-month treatment period, and at the end of rerandomized treatment.
Other secondary efficacy parameters for all three studies included: • Responder rate for the weekly diary questions on adequate relief at each month, where a responder for a month (monthly responder) was defined as a subject who answered the weekly question with “yes” at least twice for that month. The responder rate was the percentage of responders within a treatment group. The all-month responder rate for the weekly diary questions on adequate relief was also evaluated, where an all-month responder was defined as a subject who answered the weekly question with “yes” at least twice for each month. The all-month responder rate was the percentage of all-month responders within a treatment group; • Adequate relief rate for the weekly diary questions was calculated for each subject as the number of weekly assessments with adequate relief (“yes”) divided by the total number of weekly assessments; • Percentage of subjects with adequate relief for the weekly diary questions at each week; • Daily diary questions regarding abdominal pain/discomfort (five-point scale), stool consistency (seven-point scale), stool frequency (number of bowel movements each day), straining (yes or no), urgency (five-point scale), feeling of incomplete evacuation (yes or no), and bloating or feeling of abdominal distention (five-point scale); • QOL data assessed by the IBS-QOL questionnaire; and • Question to determine the interruption of activities.

[7] = test system: patients with malignant tumors; assay: Study K.241.5017: cisplatin-induced nausea and vomiting; format: in vivo, human; conditions: IV 8 mg TID
Experimental: The effect of cilansetron on nausea and vomiting has been studied in 2 clinical studies in cancer patients. Both studies were randomized, singleblind, positive-controlled, parallel-group, pilot studies in male and female patients with malignant tumors, to investigate the effect of cilansetron on cytostatic-induced nausea and vomiting. In both studies, patients were on their first cycle of chemotherapy and were being treated with cisplatin (275 mg/m2 as a single dose in Study S.24 1.2.10 1 and […] for 5 days in Study K.24 1 S O 17). Patients in Study S.24 1.2.10 1 were aged 40-74 years (ITT population=16) and patients in Study K.24 1 S O 17 were aged 39-74 years (ITT population=19). In both studies, patients were randomized to receive either […] or IV ondansetron 8 mg TID for 1 day (Study S.241.2.101) or 5 days (Study K.2415017), corresponding to the day(s) of their cisplatin administration. If nausea and vomiting were completely controlled on a treatment day, the second and/or third doses of cilansetron or ondansetron could be omitted on that day. The primary efficacy parameter in both studies was the combination of the occurrence of vomiting and the severity of nausea, with a responder being defined as a patient with no vomiting and not more than mild nausea during the treatment day(s). […]

Cc1nccn1C[C@H]1CCc2c(c3cccc4c3n2CCC4)C1=O [Cilansetron, (R)-(−)-4,5,6,8,9,10-hexahydro-10-[(2-methyl-1H-imidazol-1-yl)methyl]-11H-pyrido-[3,2,1-jk]-carbazol-11-one]
Increase of CYP2C19 [1]: about half of that caused by phenobarbital | fraction unbound [2]: 0.02 to 0.04 | fraction unbound [3]: 0.055 | Dose excreted unchanged in urine [4]: less than 1% | Intrasubject % CV [4]: 23-51% | Mean AUC(0-τ) (multiple dose) to AUC(0-inf) (single dose) ratios [4]: 81-94% | AUC Ratio (90% CI) ([4]; 8 mg): 84 (46, 154) % | Cmax Ratio (90% CI) ([4]; 8 mg): 82 (42, 160) % | DN-AUC ([4]; 8 mg): 14.0 (49) ng · h/mL | AUC Ratio (90% CI) ([4]; 16 mg): 58 (32, 103) % | Cmax Ratio (90% CI) ([4]; 16 mg): 54 (29, 103) % | AUC Ratio (90% CI) ([4]; po, 8 mg): 81 (46, 145) % | Cmax Ratio (90% CI) ([4]; po, 8 mg): 77 (46, 128) % | AUC Ratio (90% CI) ([4]; po, 16 mg): 82 (47, 142) % | Cmax Ratio (90% CI) ([4]; po, 16 mg): 79 (49, 130) % | Protein bound on average [5]: 96.0-96.6% | Fraction unbound ratio All Renal Groups Combined:Healthy [5]: 81 (62, 105) % | Fraction unbound ratio Mild:Healthy [5]: 86 (61, 121) % | Fraction unbound ratio Moderate:Healthy [5]: 84 (54, 131) % | Fraction unbound ratio Severe:Healthy [5]: 73 (52, 102) % | Fraction unbound ratio All Renal Groups Combined:Healthy ([5]; 1 h): 94 (76, 116) % | Fraction unbound ratio Mild:Healthy ([5]; 1 h): 91 (70, 119) % | Fraction unbound ratio Moderate:Healthy ([5]; 1 h): 105 (79, 140) % | Fraction unbound ratio Severe:Healthy ([5]; 1 h): 87 (65, 115) % | Fraction unbound ratio All Renal Groups Combined:Healthy ([5]; […]): 88 (70, 109) % | Fraction unbound ratio Mild:Healthy ([5]; […]): 92 (69, 123) % | Fraction unbound ratio Moderate:Healthy ([5]; […]): 90 (66, 123) % | Fraction unbound ratio Severe:Healthy ([5]; […]): 81 (59, 110) % | Subjects worsened from Baseline, IBS-QOL Overall Score ([6]; Month 3): 5% | Percentage of Subjects Who Worsened from Baseline: IBS-QOL Overall Score ([6]; Endpoint (last post-Baseline overall score)): 6% | Percentage of Subjects Who Worsened from Baseline: IBS-QOL Overall Score ([6]; Month 3): 5% | IBS-QOL body image, treatment difference ([6]; vs placebo): 7.43 | IBS-QOL dysphoria, treatment difference ([6]; vs placebo): 7.34 | IBS-QOL food avoidance, treatment difference ([6]; vs placebo): 8.92 | IBS-QOL health worry, treatment difference ([6]; vs placebo): 3.21 | IBS-QOL interference with activity, treatment difference ([6]; vs placebo): 9.73 | IBS-QOL overall score, treatment difference in mean change from Baseline at Endpoint ([6]; vs placebo): 7.37 | IBS-QOL relationships, treatment difference ([6]; vs placebo): 5.19 | IBS-QOL sexual, treatment difference ([6]; vs placebo): 5.64 | IBS-QOL social reaction, treatment difference ([6]; vs placebo): 6.19 | Response rate [7]: 21.4%
